# Literature values, collected in EP3051247B1, “CHEMICAL CLEANING PROCEDURE FOR HEAT EXCHANGERS” (GD Energy Services S.a.r.l., priority 2013, dated 2015).
# Conditions: for pKa1: first acid dissociation step (AH3 → AH2^- + H^+; BH2 → BH^- + H^+); for pKa2: second acid dissociation step (AH2^- → AH^2- + H^+; BH^- → B^2- + H^+)
Structure (SMILES),pKa1,pKa2,pKa3 (third acid dissociation step (AH^2- → A^3- + H^+))
O=C1O[C@H]([C@@H](O)CO)C(O)=C1O [Ascorbic acid],pKa1 = 4.1,pKa2 = 11.4,–
O=C(O)CC(O)(CC(=O)O)C(=O)O [Citric acid],pKa1 = 3.15,pKa2 = 4.77,pKa3 = 6.40
